Measured values as given in publication PMC10227015, “From a drug repositioning to a structure-based drug design approach to tackle acute lymphoblastic leukemia” (Nature Communications, 2023).
Several values for one entry are separate records, joined by “and”; a condition that tells them apart may be missing. Identical values can stand only once. Like-named read-outs stand apart in the source and are kept apart here.

Experiments:
[1] = Plasma pharmacokinetics after IP administration; assay type: in vivo; settings: male, Swiss, mouse, mice
Experimental: To evaluate the in vivo toxicity selected compounds were injected by intraperitoneal (IP) route to 7 weeks-old male Swiss mice (n = 2) at 10, 20, 40, 50, or 80 mg/kg by unique injection. […] Compounds were administered in their hydrochloride salt forms. Mice were then observed closely for the next one hour, then every hour for 8 h. Observations were continued for 72 h for signs of pain or toxicity such as change in the behavior and in the activity in the cage (decreased locomotion) or change in the appearance (curved back, eyes half-closed, bristle hair, hips hollowed out). In vivo toxicity of compound OR0642 at 40 and 80 mg/kg was also assessed in the NOD-SCID-IL2Rγc null (NSG) mice model for 2 weeks in the presence and absence of dT to confirm the safety of the compound. […]. Blood samples were collected and spun at 10,000 × g prior to collecting the plasma supernatants. All plasma samples were frozen at −80 °C before sample processing. 13 μl of each plasma sample was mixed with 33 μl of acetonitrile to precipitate proteins and extract the compound. Samples were vortexed for 5 min and then placed in an ultrasonic bath for 1 min. The precipitated proteins were sedimented by centrifugation (15,000 × g, 5 min, 16 °C). Supernatants were transferred to a microplate to be analyzed by LC–MS/MS. All samples were analyzed with a UHPLC coupled to a Shimadzu LC-MS 8030 triple quadrupole. The solutions of a standard range, prepared with plasma from untreated mice, were analyzed in the same series of injections.

[2] = test system: human CCRF-CEM T-ALL cell line expressing luciferase; assay: Systemic leukemia model: NSG mice inoculated intravenously with luciferase CCRF-CEM cells; assay type: in vivo, mouse; parameters: hCD45+ populations determined by flux cytometry at day 21 of CCRF-CEM bearing mice / Whole body radiance of CCRF-CEM bearing mice: unit not given here; settings: for effect on leukemic progression: dT 1.5 g/kg, OR0642 40 mg/kg IP; for Whole body radiance of CCRF-CEM bearing mice / hCD45+ populations determined by flux cytometry at day 21 of CCRF-CEM bearing mice / Whole body radiance at day 21 of CCRF-CEM bearing mice / Survival days of CCRF-CEM bearing mice: dT 1,5 g/Kg, OR0642 40 mg/Kg; for hCD45+ populations determined by flux cytometry at day 21 of CCRF-CEM bearing mice: day 21, blood; for Whole body radiance at day 21 of CCRF-CEM bearing mice: day 21, individual mice (Figure 4d);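 as to hCD45+ populations determined by flux cytometry at day 21 of CCRF-CEM bearing mice: Bead-counted human ALL blasts per volume of peripheral blood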
CCRF-CEM cells [3] = assay: γH2A.X measurements (DNA damage); assay type: cell-based, human; settings: 24 h, dT 200 µM, others 1 µM, presence of dC
Experimental: (§1) CCRF-CEM cells were seeded at 100,000 cells/ml, and treated with DMSO (0.01%) as vehicle control or dT (200 μΜ), and/or dC, OR0642, DI-87 and DI-39 (1 μΜ). For cell cycle analysis, cells were harvested after 24 h, fixed in 4% paraformaldehyde, permeabilized with 0.15% Triton X100, and DNA content was determined using 1 μg/ml DAPI. For apoptosis assay, cells were harvested after 72 h and cell death was assayed using Annexin V-APC and 7AAD following manufacturer’s instructions (Biolegend, 640930). For γH2A.X measurements, cells were harvested after 24 h, fixed in 4% paraformaldehyde and permeabilized with 0.15% Triton X100. Then, cells were stained with the phospho-H2AX (pS139 H2AX, Biolegend, 613402, 1:1000) specific primary antibody, Alexa-Fluor 488 secondary antibody (ThermoFisher, A21202, 1:1000) and DAPI. All acquisitions were performed on a BD Fortessa cytometer, and analysis of flow cytometry data was performed using FlowJo™ Software 10.7.1 (BD Life Sciences). Each experiment was performed three times. Figures exemplifying the gating strategy are provided in the Supplementary Information (Supplementary Figs. 29–31).
Cells were seeded, treated and stained as described for flow cytometry analysis, and then spread on a microscope slide using cytospin. Slides were mounted with […] mounting medium with DAPI (Vector Laboratories). […]

CCRF-CEM cells [4] = assay: Annexin V apoptosis assay; assay type: cell-based, human; settings: 72 h, dT 200 µM, others 1 µM, presence of dC
Experimental: as §1

human c-KIT = target: T1, human c-KIT (Homo sapiens, UniProt P10721); assay: c-KIT cellular assay: Ba/F3 proliferation with SCF, without IL3; assay type: cell-based; settings: for Cell proliferation of the IL-3 dependent Ba/F3 cell line Mean (% prolif): SCF, no IL3, 48 h; for IC50 ratio of IL3/SCF (unspecific/c-KIT): Ba/F3 expressing WT human c-KIT, 72 h
T1 construct: expressed in transfected cells; host or cells: Ba/F3 (murine IL3-dependent pro-B cell line)
Experimental: The generation of Ba/F3 cells expressing wild-type human c-KIT has been previously described by us[55],[56]. For the assay of Ba/F3 cell proliferation, plates were seeded with a total of 10,000 cells per well. Cells were supplemented, or not, with either 0.1% IL3 or 250 ng/ml murine SCF. IL3 was obtained from conditioned medium from X63-omIL-3 cells (obtained from Fritz Melchers laboratory (Berlin, Germany)) and murine SCF, which activates c-KIT, was purified from the conditioned medium of SCF-producing CHO cells. Cells were supplemented with compounds at varying concentrations (final 0.1% DMSO). […] The amount of reduced dye formed by metabolically active cells was quantified by its fluorescence measured at 560 nm (excitation) and 590 nm (emission) in a microplate reader (FLUOstar Omega, BMG Labtech). A blank well without cells was used as a background control. Each experiment was performed at least three times (with technical triplicates) and data are presented as the mean ± SD.

[5] = dose 40 mg/Kg, read-out: T ½ (converted)

T1 sequence (P10721 26-976): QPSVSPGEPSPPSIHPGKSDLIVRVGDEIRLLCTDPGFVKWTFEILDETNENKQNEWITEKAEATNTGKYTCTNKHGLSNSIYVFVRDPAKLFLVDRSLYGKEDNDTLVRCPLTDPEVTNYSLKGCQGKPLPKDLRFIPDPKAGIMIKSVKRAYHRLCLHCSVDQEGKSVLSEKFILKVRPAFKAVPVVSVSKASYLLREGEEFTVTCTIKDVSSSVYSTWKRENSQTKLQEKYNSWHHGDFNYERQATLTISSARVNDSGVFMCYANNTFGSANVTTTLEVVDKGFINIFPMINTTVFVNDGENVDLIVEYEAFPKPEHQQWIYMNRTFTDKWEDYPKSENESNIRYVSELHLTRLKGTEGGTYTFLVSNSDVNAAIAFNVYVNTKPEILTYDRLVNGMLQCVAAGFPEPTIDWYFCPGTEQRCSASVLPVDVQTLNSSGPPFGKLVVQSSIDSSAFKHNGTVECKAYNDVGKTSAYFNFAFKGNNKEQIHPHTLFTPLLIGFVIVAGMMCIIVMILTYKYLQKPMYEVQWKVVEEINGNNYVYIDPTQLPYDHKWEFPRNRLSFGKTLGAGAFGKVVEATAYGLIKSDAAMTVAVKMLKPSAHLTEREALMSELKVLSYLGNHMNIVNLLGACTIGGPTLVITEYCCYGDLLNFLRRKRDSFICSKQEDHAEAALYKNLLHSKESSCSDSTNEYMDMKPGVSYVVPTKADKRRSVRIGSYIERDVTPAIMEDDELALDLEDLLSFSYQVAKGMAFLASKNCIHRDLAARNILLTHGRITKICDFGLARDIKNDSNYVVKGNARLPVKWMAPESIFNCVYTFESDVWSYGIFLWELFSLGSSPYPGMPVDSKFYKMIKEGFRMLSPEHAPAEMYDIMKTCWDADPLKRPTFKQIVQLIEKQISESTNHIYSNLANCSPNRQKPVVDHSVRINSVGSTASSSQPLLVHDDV

## CCCN(c1nc(-c2nc(N)cc(N)n2)cs1)c1cc(-c2ccc(CCN3CCN(C)CC3)nc2)ccc1C [OR0602]
[1]; dose 10 mg/Kg
  Cmax: 960 ± 40 nM
  Tmax: 1 h
[1]; dose 10 mg/Kg, read-out: T ½ (converted)
  half-life: 2 ± 0.233 h

## CCCN(c1nc(-c2nc(N)cc(N)n2)cs1)c1cc(-c2ccc(S(=O)(=O)N3CCN(C)CC3)c(OC)c2)ccc1C [OR0635]
[1]; dose 40 mg/Kg
  Cmax: 2000 ± 200 nM
  Tmax: 1.5 h
[1]; [5]
  half-life: 6.22 ± 3.38 h
[1]; read-out: half-life
  half-life: > 5 h

## CCCN(c1nc(-c2nc(N)cc(N)n2)cs1)c1cc(-c2ccc(S(=O)(=O)N3CCN(C)CC3)cc2C(F)(F)F)ccc1C [OR0642]
[2]
  effect on leukemic progression: did not show any antiproliferative effect
[2]; day 0 (before treatment), individual mice, 40 mg/kg
  Whole body radiance of CCRF-CEM bearing mice: 1948 and 1585 and 1112 and 1289 and 1143 and 2120 and 1563 and 1766 and 1453
[2]; day 7, individual mice, 40 mg/kg
  Whole body radiance of CCRF-CEM bearing mice: 5130 and 1470 and 1540 and 826 and 1990 and 2090 and 4750 and 1530 and 2610
[2]; day 14, individual mice, 40 mg/kg
  Whole body radiance of CCRF-CEM bearing mice: 392000 and 24500 and 395000 and 489000 and 137000 and 327000 and 469000 and 291000 and 53900
[2]; individual mice, 40 mg/kg
  hCD45+ populations determined by flux cytometry at day 21 of CCRF-CEM bearing mice: 216.1 and 194.2 and 86.4 and 80.1 and 74.9 and 211.8 and 120.7 and 113.3 and 112.2
  Survival days of CCRF-CEM bearing mice: 25 days and 26 days and 27 days
[2]; day 21, individual mice (Figure 4b), 40 mg/kg
  Whole body radiance of CCRF-CEM bearing mice: 2070000 and 4600000 and 1490000 and 6950000 and 1760000 and 5460000 and 5470000 and 5010000 and 3010000
[2]; 40 mg/kg
  Whole body radiance at day 21 of CCRF-CEM bearing mice: 2180000 and 4850000 and 1550000 and 7340000 and 1840000 and 5680000 and 5590000 and 4590000 and 3150000
[1]; dose 20 mg/Kg
  Cmax: 800 ± 200 nM
  Tmax: 2 h
[1]; dose 20 mg/Kg, read-out: T ½ (converted)
  half-life: 7 ± 3 h
[1]; dose 40 mg/Kg
  Cmax: 4100 ± 1500 nM
  Tmax: 5 h
[1]; [5]
  half-life: > 8 h
[1]; read-out: half-life
  half-life: > 7 h
CCRF-CEM cells [3]
  DNA damage, γH2A.X: neither dT nor OR0642 alone induced DNA damage or apoptosis
CCRF-CEM cells [4]
  apoptosis, Annexin V staining: neither dT nor OR0642 alone induced DNA damage or apoptosis

## Cc1ccc(NC(=O)c2ccc(CN3CCN(C)CC3)cc2)cc1Nc1nc(-c2nccc(N)n2)cs1 [dCKi1]
Human c-KIT; 3.7 nM
  Cell proliferation of the IL-3 dependent Ba/F3 cell line Mean (% prolif): 98.5%
Human c-KIT; 11 nM
  Cell proliferation of the IL-3 dependent Ba/F3 cell line Mean (% prolif): 97.1%
Human c-KIT; 33 nM
  Cell proliferation of the IL-3 dependent Ba/F3 cell line Mean (% prolif): 99.7%
Human c-KIT; 99 nM
  Cell proliferation of the IL-3 dependent Ba/F3 cell line Mean (% prolif): 87.3%
Human c-KIT; 296 nM
  Cell proliferation of the IL-3 dependent Ba/F3 cell line Mean (% prolif): 83.7%
Human c-KIT; 889 nM
  Cell proliferation of the IL-3 dependent Ba/F3 cell line Mean (% prolif): 66.8%
Human c-KIT; 2667 nM
  Cell proliferation of the IL-3 dependent Ba/F3 cell line Mean (% prolif): 24.0%
Human c-KIT; 8000 nM
  Cell proliferation of the IL-3 dependent Ba/F3 cell line Mean (% prolif): 0.4%
Human c-KIT; 24000 nM
  Cell proliferation of the IL-3 dependent Ba/F3 cell line Mean (% prolif): 0.35%
Human c-KIT
  IC50 ratio of IL3/SCF (unspecific/c-KIT): 7.6

## Cc1ccc(NC(=O)c2ccc(CN3CCN(C)CC3)cc2)cc1Nc1nc(-c2nc(N)cc(N)n2)cs1 [dCKi2, N-(3-((4-(4,6-diaminopyrimidin-2-yl)thiazol-2-yl)amino)-4-methylphenyl)-4-((4-methylpiperazin-1-yl)methyl)benzamide]
Human c-KIT; 3.7 nM
  Cell proliferation of the IL-3 dependent Ba/F3 cell line Mean (% prolif): 97.2%
Human c-KIT; 11 nM
  Cell proliferation of the IL-3 dependent Ba/F3 cell line Mean (% prolif): 96.0%
Human c-KIT; 33 nM
  Cell proliferation of the IL-3 dependent Ba/F3 cell line Mean (% prolif): 97.1%
Human c-KIT; 99 nM
  Cell proliferation of the IL-3 dependent Ba/F3 cell line Mean (% prolif): 91.8%
Human c-KIT; 296 nM
  Cell proliferation of the IL-3 dependent Ba/F3 cell line Mean (% prolif): 94.5%
Human c-KIT; 889 nM
  Cell proliferation of the IL-3 dependent Ba/F3 cell line Mean (% prolif): 86.6%
Human c-KIT; 2667 nM
  Cell proliferation of the IL-3 dependent Ba/F3 cell line Mean (% prolif): 76.3%
Human c-KIT; 8000 nM
  Cell proliferation of the IL-3 dependent Ba/F3 cell line Mean (% prolif): 48.8%
Human c-KIT; 24000 nM
  Cell proliferation of the IL-3 dependent Ba/F3 cell line Mean (% prolif): 6.7%
Human c-KIT
  IC50 ratio of IL3/SCF (unspecific/c-KIT): 2.7

## Cc1cn([C@H]2C[C@H](O)[C@@H](CO)O2)c(=O)[nH]c1=O [dT, thymidine]
[2]
  effect on leukemic progression: scarcely reduced leukemic progression
  Whole body radiance at day 21 of CCRF-CEM bearing mice: 1720000 and 2530000 and 2010000 and 1980000 and 545000 and 1000000 and 1210000
[2]; day 0 (before treatment), individual mice
  Whole body radiance of CCRF-CEM bearing mice: 2430 and 1179 and 1269 and 2044 and 1251 and 1181 and 1090
[2]; day 7, individual mice
  Whole body radiance of CCRF-CEM bearing mice: 1580 and 1140 and 2350 and 2150 and 1440 and 1960 and 2210
[2]; day 14, individual mice
  Whole body radiance of CCRF-CEM bearing mice: 94100 and 37700 and 196000 and 167000 and 8080 and 182000 and 106000
[2]; individual mice
  hCD45+ populations determined by flux cytometry at day 21 of CCRF-CEM bearing mice: 24.2 and 22.7 and 31.6 and 8.9 and 23.4 and 14.2
  Survival days of CCRF-CEM bearing mice: 28 days and 29 days and 30 days
[2]; day 21, individual mice (Figure 4b)
  Whole body radiance of CCRF-CEM bearing mice: 1150000 and 1620000 and 2390000 and 1910000 and 1880000 and 520000 and 953000
CCRF-CEM cells [3]
  DNA damage, γH2A.X: neither dT nor OR0642 alone induced DNA damage or apoptosis
CCRF-CEM cells [4]
  apoptosis, Annexin V staining: neither dT nor OR0642 alone induced DNA damage or apoptosis
